pIC50: −log10 of the molar value. Read-outs that look alike come from different tables or passages of the source. Numbered stars: 1 amine (or outer) side, 2 acyl side, 3 side chain; on linkers, the order of the positions; unused ones are H or OH. Square brackets hold non-standard residues; d marks the D form. Peptide text beside a SMILES is read from it. * marks the point of attachment. ξ: configuration not given here. X3 = NC[C@H](OC(=O)C(F)(F)F)[C@H](N[*:1])C(=O)[*:2]; Phe(3,4-(OMe)2) = COc1ccc(C[C@H](N)C(=O)O)cc1OC; Phe(3-CONH2) = NC(=O)c1cccc(C[C@H](N)C(=O)O)c1; X1 = O=C([C@H](Cc1cc(F)c(F)cc1F)N[*:1])[*:2]; Abu(4,4,4-F3) = N[C@@H](CC(F)(F)F)C(=O)O; Phe(4-CN) = N#Cc1ccc(C[C@H](N)C(=O)O)cc1; Phe(3-F) = N[C@@H](Cc1cccc(F)c1)C(=O)O; Phe(3-Me) = Cc1cccc(C[C@H](N)C(=O)O)c1; Dab(3S-OH) = NC[C@H](O)[C@H](N)C(=O)O; Phe(2-F) = N[C@@H](Cc1ccccc1F)C(=O)O; Lys(5ξ-OH) = NCC(O)CC[C@H](N)C(=O)O; ΔZArg = N=C(N)NCC/C=C(\N)C(=O)O; dOrn = NCCC[C@@H](N)C(=O)O; NH(CH2)4NH2 = NCCCCN*
Experiments:
[1] = tested on: Pseudomonas aeruginosa ATCC 27853; experiment: MIC, broth microdilution (CLSI), reference strain; details: CAMHB
[2] = tested on: Escherichia coli ATCC 25922; experiment: MIC, broth microdilution (CLSI), reference strain; details: CAMHB
[3] = tested on: Staphylococcus aureus ATCC 13709; experiment: MIC, broth microdilution (CLSI), reference strain; details: CAMHB
[4] = tested on: Acinetobacter baumannii ATCC 19606; experiment: MIC, broth microdilution (CLSI), reference strain; details: CAMHB
[5] = tested on: Ec #1 (NCTC13476); experiment: MIC / resistance profile, multidrug-resistant strain; details: multidrug-resistant E. coli NCTC13476
[6] = tested on: Ec #2 (MIN); experiment: as above; details: multidrug-resistant E. coli MIN
[7] = tested on: Ec #3 (EGB957); experiment: as above; details: multidrug-resistant E. coli EGB957
[8] = tested on: Ec #4 (GUE); experiment: as above; details: multidrug-resistant E. coli GUE
[9] = tested on: Ec #5 (DSM22315); experiment: as above; details: multidrug-resistant E. coli DSM22315
[10] = biological target: N-type calcium channels (Cav2.2) (Rattus norvegicus (Rat), UniProt Q02294); experiment: biochemical; type: binding
[11] = tested on: Klebsiella pneumoniae ATCC BAA2470; experiment: Murine peritonitis/sepsis model with Odilorhabdin A (Example 13); type: in vivo, CD-1 mice
[12] = value in brackets, rat cerebral cortex, [125I]ω-conotoxin GVIA 0.001 nM, read-out: IC50 Cav2.2
[13] = class symbol, rat cerebral cortex, [125I]ω-conotoxin GVIA 0.001 nM, 30 minutes at room temperature, read-out: IC50 Cav2.2

Structure (SMILES)	Pa: MIC Pseudomonas aeruginosa ATCC 27853 [1]	Ec: MIC Escherichia coli ATCC 25922 [2]	Sa: MIC Staphylococcus aureus ATCC 13709 [3]	Ab: MIC Acinetobacter baumannii ATCC 19606 [4]	MIC Ec#1 [5]	MIC Ec#2 [6]	MIC Ec#3 [7]	MIC Ec#4 [8]	MIC Ec#5 [9]	pIC50 [10]	pIC50 [10, 12]	pIC50 [10, 13]	Alive animals at 24 hrs ([11]; 5 mg/kg i.v. single bolus, n=6)	Alive animals at 24 hrs ([11]; 10 mg/kg i.v. single bolus, n=8)	Alive animals at 24 hrs ([11]; 15 mg/kg i.v. single bolus, n=7)	Alive animals at 24 hrs ([11]; 20 mg/kg i.v. single bolus, n=8)	ED50 ([11]; single i.v. bolus one hour after i.p. challenge, 10^7.7 CFU/ml, observed 24 hours) [mg/kg]
C[C@H](NC(=O)[C@@H](NC(=O)[C@@H](N)CCCCN)[C@@H](O)CN)C(=O)NCC(=O)N[C@H](CCCN)C(=O)N1CCC[C@H]1C(=O)N[C@@H](Cc1cc(F)c(F)cc1F)C(=O)N[C@@H](CCCCN)C(=O)N/C(=C\CCNC(=N)N)C(=O)O [24.77] (H-K[Dab(3S-OH)]AG[dOrn]P[X1]K[ΔZArg]-OH)	− (>32 μg/mL)	++ (≤8 μg/mL)	++ (≤8 μg/mL)	− (>32 μg/mL)	+ (≤32 μg/mL)	+ (≤32 μg/mL)	++ (≤8 μg/mL)	+ (≤32 μg/mL)	+ (≤32 μg/mL)								
COc1ccc(C[C@H](NC(=O)[C@@H]2CCCN2C(=O)[C@@H](CCCN)NC(=O)CNC(=O)[C@H](C)NC(=O)[C@@H](NC(=O)[C@@H](N)CCCCN)[C@@H](O)CN)C(=O)N[C@@H](CCCCN)C(=O)N/C(=C\CCNC(=N)N)C(=O)O)cc1OC [24.85] (H-K[Dab(3S-OH)]AG[dOrn]P[Phe(3,4-(OMe)2)]K[ΔZArg]-OH)	− (>32 μg/mL)	++ (≤8 μg/mL)	+ (≤32 μg/mL)	− (>32 μg/mL)	++ (≤8 μg/mL)	+ (≤32 μg/mL)	+ (≤32 μg/mL)	++ (≤8 μg/mL)	+ (≤32 μg/mL)	< 6.52	5.92						
C[C@H](NC(=O)[C@@H](NC(=O)[C@@H](N)CCCCN)[C@@H](O)CN)C(=O)NCC(=O)N[C@H](CCCN)C(=O)N1CCC[C@H]1C(=O)N[C@@H](Cc1cccc(C(N)=O)c1)C(=O)N[C@@H](CCCCN)C(=O)N/C(=C\CCNC(=N)N)C(=O)O [24.90] (H-K[Dab(3S-OH)]AG[dOrn]P[Phe(3-CONH2)]K[ΔZArg]-OH)	− (>32 μg/mL)	++ (≤8 μg/mL)	++ (≤8 μg/mL)	− (>32 μg/mL)	++ (≤8 μg/mL)	++ (≤8 μg/mL)	++ (≤8 μg/mL)	++ (≤8 μg/mL)	++ (≤8 μg/mL)								
C[C@H](NC(=O)[C@@H](NC(=O)[C@@H](N)CCCCN)[C@@H](O)CN)C(=O)NCC(=O)N[C@H](CCCN)C(=O)N1CCC[C@H]1C(=O)N[C@@H](Cc1ccc(C#N)cc1)C(=O)N[C@@H](CCCCN)C(=O)N/C(=C\CCNC(=N)N)C(=O)O [24.100] (H-K[Dab(3S-OH)]AG[dOrn]P[Phe(4-CN)]K[ΔZArg]-OH)	− (>32 μg/mL)	++ (≤8 μg/mL)	++ (≤8 μg/mL)	− (>32 μg/mL)	++ (≤8 μg/mL)	++ (≤8 μg/mL)	++ (≤8 μg/mL)	++ (≤8 μg/mL)	+ (≤32 μg/mL)								
C[C@H](NC(=O)[C@@H](NC(=O)[C@@H](N)CCCCN)[C@@H](O)CN)C(=O)NCC(=O)N[C@H](CCCN)C(=O)N1CCC[C@H]1C(=O)N[C@@H](CC(F)(F)F)C(=O)N[C@@H](CCCCN)C(=O)N/C(=C\CCNC(=N)N)C(=O)O [24.109] (H-K[Dab(3S-OH)]AG[dOrn]P[Abu(4,4,4-F3)]K[ΔZArg]-OH)	− (>32 μg/mL)	++ (≤8 μg/mL)	++ (≤8 μg/mL)	− (>32 μg/mL)	+ (≤32 μg/mL)	+ (≤32 μg/mL)	+ (≤32 μg/mL)	+ (≤32 μg/mL)	+ (≤32 μg/mL)	< 6.52	6.00						
C[C@H](NC(=O)[C@@H](NC(=O)[C@@H](N)CCCCN)[C@@H](O)CN)C(=O)NCC(=O)N[C@H](CCCN)C(=O)N1CCC[C@H]1C(=O)N[C@@H](Cc1ccccc1F)C(=O)N[C@@H](CCCCN)C(=O)N/C(=C\CCNC(=N)N)C(=O)O [24.151] (H-K[Dab(3S-OH)]AG[dOrn]P[Phe(2-F)]K[ΔZArg]-OH)	− (>32 μg/mL)	++ (≤8 μg/mL)	++ (≤8 μg/mL)	− (>32 μg/mL)	+ (≤32 μg/mL)	+ (≤32 μg/mL)	+ (≤32 μg/mL)	+ (≤32 μg/mL)	++ (≤8 μg/mL)			< 6.52					
C[C@H](NC(=O)[C@@H](NC(=O)[C@@H](N)CCCCN)[C@@H](O)CN)C(=O)NCC(=O)N[C@H](CCCN)C(=O)N1CCC[C@H]1C(=O)N[C@@H](Cc1cccc(F)c1)C(=O)N[C@@H](CCCCN)C(=O)N/C(=C\CCNC(=N)N)C(=O)O [24.152] (H-K[Dab(3S-OH)]AG[dOrn]P[Phe(3-F)]K[ΔZArg]-OH)	− (>32 μg/mL)	++ (≤8 μg/mL)	++ (≤8 μg/mL)	− (>32 μg/mL)	+ (≤32 μg/mL)	+ (≤32 μg/mL)	+ (≤32 μg/mL)	+ (≤32 μg/mL)	++ (≤8 μg/mL)			< 6.52					
Cc1cccc(C[C@H](NC(=O)[C@@H]2CCCN2C(=O)[C@@H](CCCN)NC(=O)CNC(=O)[C@H](C)NC(=O)[C@@H](NC(=O)[C@@H](N)CCCCN)[C@@H](O)CN)C(=O)N[C@@H](CCCCN)C(=O)N/C(=C\CCNC(=N)N)C(=O)O)c1 [24.153] (H-K[Dab(3S-OH)]AG[dOrn]P[Phe(3-Me)]K[ΔZArg]-OH)	− (>32 μg/mL)	++ (≤8 μg/mL)	++ (≤8 μg/mL)	− (>32 μg/mL)	++ (≤8 μg/mL)	++ (≤8 μg/mL)	++ (≤8 μg/mL)	+ (≤32 μg/mL)	++ (≤8 μg/mL)			< 6.52					
COc1ccc(C[C@H](NC(=O)[C@@H]2CCCN2C(=O)[C@@H](CCCN)NC(=O)CNC(=O)[C@H](C)NC(=O)[C@@H](NC(=O)[C@@H](N)CCCCN)[C@@H](O)CN)C(=O)N[C@@H](CCCCN)C(=O)N/C(=C\CCNC(=N)N)C(=O)O)cc1 [24.154] (H-K[Dab(3S-OH)]AG[dOrn]PY(Me)K[ΔZArg]-OH)	− (>32 μg/mL)	++ (≤8 μg/mL)	++ (≤8 μg/mL)	− (>32 μg/mL)	++ (≤8 μg/mL)	++ (≤8 μg/mL)	++ (≤8 μg/mL)	++ (≤8 μg/mL)	++ (≤8 μg/mL)			< 6.52					
C[C@H](NC(=O)[C@@H](NC(=O)[C@@H](N)CCCCN)[C@@H](O)CN)C(=O)NCC(=O)N[C@H](CCCN)C(=O)N1CCC[C@H]1C(=O)N[C@@H](Cc1c[nH]c2ccccc12)C(=O)N[C@@H](CCCCN)C(=O)N/C(=C\CCNC(=N)N)C(=O)O [24.156] (H-K[Dab(3S-OH)]AG[dOrn]PWK[ΔZArg]-OH)	− (>32 μg/mL)	++ (≤8 μg/mL)	++ (≤8 μg/mL)	− (>32 μg/mL)	+ (≤32 μg/mL)	++ (≤8 μg/mL)	++ (≤8 μg/mL)	++ (≤8 μg/mL)	++ (≤8 μg/mL)								
N=C(N)NCC/C=C(\NC(=O)[C@H](CCCCN)NC(=O)[C@H](Cc1cnc[nH]1)NC(=O)[C@@H]1CCCN1C(=O)[C@@H](CCCN)NC(=O)CNC(=O)[C@@H](NC(=O)[C@@H](NC(=O)[C@@H](N)CCCCN)[C@@H](O)CN)[C@H](CN)OC(=O)C(F)(F)F)C(=O)N[C@@H](CCCCN)C(=O)NCCCCN [224.1] (H-K[Dab(3S-OH)][X3]G[dOrn]PHK[ΔZArg]K-{NH(CH2)4NH2})	+ (≤32 μg/mL)	++ (≤8 μg/mL)	++ (≤8 μg/mL)	− (>32 μg/mL)								> 7.52					
N=C(N)NCC/C=C(\NC(=O)[C@H](CCC(O)CN)NC(=O)[C@H](Cc1c[nH]cn1)NC(=O)[C@@H]1CCCN1C(=O)[C@@H](CCCN)NC(=O)CNC(=O)[C@@H](NC(=O)[C@@H](NC(=O)[C@@H](N)CCCCN)[C@@H](O)CN)[C@@H](O)CN)C(=O)N[C@@H](CCC(O)CN)C(=O)NCCCCN (stereo partly drawn) [Odilorhabdin A] (H-K[Dab(3S-OH)][Dab(3S-OH)]G[dOrn]PH[Lys(5ξ-OH)][ΔZArg][Lys(5ξ-OH)]-{NH(CH2)4NH2}; N-terminus and C-terminus assumed)											7.60		0	2	4	6	13.9
